Laboratory results taken from PMC8185074, “Anchor extension: a structure-guided approach to design cyclic peptides targeting enzyme active sites” (Nature Communications, 2021).
Peptide text beside a SMILES is read from it.

Experiments:
HDAC2 = target: T1, HDAC2 (Homo sapiens, UniProt Q92769); assay: HDAC2 inhibition, full IC50 measurement (Reaction Biology; fluorogenic p53 peptide RHKK(Ac)AMC); assay type: biochemical
T1 construct: purchased Reaction Biology Corporation (assay run by the CRO)
Method: (§1) The assay was performed using 50 μM fluorogenic peptide from p53 residues 379-382 [RHKK(Ac)AMC] in a base reaction buffer of 50 mM Tris-HCl at pH 8.0, 137 mM NaCl, 2.7 mM KCl, 1 mM MgCl2, and freshly added 1 mg/ml BSA and 1% DMSO. Peptides were first dissolved in DMSO and then added to the reaction mixture with the enzyme using acoustic technique, enough to reach the desired concentration for that assay point. Peptide concentrations were calculated based on mass of lyophilized peptide and its molecular weight. The substrate was then added and incubated for 1 hour at 30 °C in a sealed container. After the incubation, developer was added to stop the reaction and develop color. Kinetic measurements were then performed for 20 min with Envision with 5 min intervals (Ex/Em = 360/460 nm). The endpoint after plateau was taken for IC50 measurement.
(§2) In cases where duplicate measures are used, average data is reported in the main text or Supplementary Tables.

HDAC6 = target: T2, HDAC6 (Homo sapiens, UniProt Q9UBN7); assay: HDAC6 inhibition, full IC50 measurement (Reaction Biology; fluorogenic p53 peptide RHKK(Ac)AMC); assay type: biochemical
T2 construct: purchased Reaction Biology Corporation (assay run by the CRO)
T2 sequence (Q9UBN7 1-1215): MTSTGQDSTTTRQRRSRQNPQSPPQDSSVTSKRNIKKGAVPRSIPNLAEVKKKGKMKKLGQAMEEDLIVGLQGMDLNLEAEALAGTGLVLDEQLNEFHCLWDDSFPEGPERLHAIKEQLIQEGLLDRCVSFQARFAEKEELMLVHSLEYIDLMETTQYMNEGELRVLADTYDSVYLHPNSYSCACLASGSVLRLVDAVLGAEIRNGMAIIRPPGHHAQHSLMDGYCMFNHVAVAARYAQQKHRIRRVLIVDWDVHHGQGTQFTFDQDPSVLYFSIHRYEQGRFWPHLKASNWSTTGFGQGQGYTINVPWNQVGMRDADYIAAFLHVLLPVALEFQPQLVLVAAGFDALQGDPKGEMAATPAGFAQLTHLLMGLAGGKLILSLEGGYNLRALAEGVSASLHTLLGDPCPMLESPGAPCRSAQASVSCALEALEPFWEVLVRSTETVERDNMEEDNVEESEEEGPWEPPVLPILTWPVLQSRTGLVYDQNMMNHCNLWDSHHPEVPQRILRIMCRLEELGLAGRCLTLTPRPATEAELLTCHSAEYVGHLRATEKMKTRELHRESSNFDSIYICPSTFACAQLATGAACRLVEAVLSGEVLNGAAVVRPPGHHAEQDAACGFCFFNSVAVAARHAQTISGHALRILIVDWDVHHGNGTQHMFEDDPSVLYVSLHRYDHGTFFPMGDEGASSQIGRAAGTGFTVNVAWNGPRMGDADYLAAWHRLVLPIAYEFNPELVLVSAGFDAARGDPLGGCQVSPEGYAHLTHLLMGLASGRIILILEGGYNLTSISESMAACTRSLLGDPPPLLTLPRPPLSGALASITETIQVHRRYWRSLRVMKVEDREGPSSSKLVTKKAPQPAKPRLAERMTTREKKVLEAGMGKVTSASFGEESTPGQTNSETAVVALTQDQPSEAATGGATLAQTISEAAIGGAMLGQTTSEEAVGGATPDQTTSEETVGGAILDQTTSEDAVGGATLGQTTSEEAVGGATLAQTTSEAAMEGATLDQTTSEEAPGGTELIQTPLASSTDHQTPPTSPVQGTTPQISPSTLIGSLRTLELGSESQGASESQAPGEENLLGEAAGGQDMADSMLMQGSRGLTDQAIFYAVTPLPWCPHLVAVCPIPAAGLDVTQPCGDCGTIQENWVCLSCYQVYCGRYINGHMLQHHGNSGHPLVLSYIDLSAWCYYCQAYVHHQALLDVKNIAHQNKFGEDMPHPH
Method: as §1, §2

T1 sequence (Q92769 whole entry): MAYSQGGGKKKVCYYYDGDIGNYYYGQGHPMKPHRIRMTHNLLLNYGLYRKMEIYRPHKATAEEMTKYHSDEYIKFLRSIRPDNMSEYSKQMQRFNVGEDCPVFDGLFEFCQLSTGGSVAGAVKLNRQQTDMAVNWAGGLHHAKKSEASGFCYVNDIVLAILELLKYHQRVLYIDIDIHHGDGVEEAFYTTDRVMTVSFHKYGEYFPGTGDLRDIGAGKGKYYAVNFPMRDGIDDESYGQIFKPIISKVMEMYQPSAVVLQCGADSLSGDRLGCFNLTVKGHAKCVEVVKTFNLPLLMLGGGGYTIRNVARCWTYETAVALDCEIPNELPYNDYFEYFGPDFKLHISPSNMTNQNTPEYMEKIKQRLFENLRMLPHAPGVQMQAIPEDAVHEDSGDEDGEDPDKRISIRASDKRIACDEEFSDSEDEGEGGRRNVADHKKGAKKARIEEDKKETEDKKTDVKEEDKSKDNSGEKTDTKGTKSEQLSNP

CCCC[C@H]1NC(=O)[C@H](CC(=O)O)NC(=O)[C@@H](CO)NC(=O)[C@@H](C)NC(=O)[C@H](CCCCN)NC(=O)[C@@H](CCCCN)NC(=O)[C@H](Cc2ccccc2)NC(=O)[C@H](CCCCCS)NC1=O [des4.3.1.2, SHA-Phe-dLys-Lys-dAla-dSer-Asp-dNle] (HELM PEPTIDE1{D.[CCCC[C@@H](N[*:1])C(=O)[*:2]].[O=C([C@H](CCCCCS)N[*:1])[*:2]].F.[dK].K.[dA].[dS]}$PEPTIDE1,PEPTIDE1,1:R1-8:R2$$$V2.0)
HDAC2 activity raw data (signal) (HDAC2; Conc. 1.00E-05 M, t1): 1148842
HDAC2 activity raw data (signal) (HDAC2; Conc. 1.00E-05 M, t2): 1124925
HDAC2 activity raw data (signal) (HDAC2; Conc. 1.11E-06 M, t1): 1654730
HDAC2 activity raw data (signal) (HDAC2; Conc. 1.11E-06 M, t2): 1704574
HDAC2 activity raw data (signal) (HDAC2; Conc. 1.23E-07 M, t1): 1694685
HDAC2 activity raw data (signal) (HDAC2; Conc. 1.23E-07 M, t2): 1708262
HDAC2 activity raw data (signal) (HDAC2; Conc. 1.37E-08 M, t1): 1883329
HDAC2 activity raw data (signal) (HDAC2; Conc. 1.37E-08 M, t2): 1685214
HDAC2 activity raw data (signal) (HDAC2; Conc. 1.52E-09 M, t1): 1920222
HDAC2 activity raw data (signal) (HDAC2; Conc. 1.52E-09 M, t2): 1770203
HDAC2 activity raw data (signal) (HDAC2; Conc. 3.33E-06 M, t1): 1489645
HDAC2 activity raw data (signal) (HDAC2; Conc. 3.33E-06 M, t2): 1397108
HDAC2 activity raw data (signal) (HDAC2; Conc. 3.70E-07 M, t1): 1733657
HDAC2 activity raw data (signal) (HDAC2; Conc. 3.70E-07 M, t2): 1639218
HDAC2 activity raw data (signal) (HDAC2; Conc. 4.12E-08 M, t1): 1743081
HDAC2 activity raw data (signal) (HDAC2; Conc. 4.12E-08 M, t2): 1732768
HDAC2 activity raw data (signal) (HDAC2; Conc. 4.57E-09 M, t1): 1828637
HDAC2 activity raw data (signal) (HDAC2; Conc. 4.57E-09 M, t2): 1698186
HDAC2 activity raw data (signal) (HDAC2; Conc. 5.08E-10 M, t1): 1916889
HDAC2 activity raw data (signal) (HDAC2; Conc. 5.08E-10 M, t2): 1862597
6-Selectivity: fold potency for HDAC6 over HDAC2 (HDAC6): > 100 fold
HDAC6 activity raw data (signal) (HDAC6; Conc. 1.00E-05 M, t1): 342990
HDAC6 activity raw data (signal) (HDAC6; Conc. 1.00E-05 M, t2): 304678
HDAC6 activity raw data (signal) (HDAC6; Conc. 1.11E-06 M, t1): 1091316
HDAC6 activity raw data (signal) (HDAC6; Conc. 1.11E-06 M, t2): 1078978
HDAC6 activity raw data (signal) (HDAC6; Conc. 1.23E-07 M, t1): 1593999
HDAC6 activity raw data (signal) (HDAC6; Conc. 1.23E-07 M, t2): 1556041
HDAC6 activity raw data (signal) (HDAC6; Conc. 1.37E-08 M, t1): 1690122
HDAC6 activity raw data (signal) (HDAC6; Conc. 1.37E-08 M, t2): 1641196
HDAC6 activity raw data (signal) (HDAC6; Conc. 1.52E-09 M, t1): 1700998
HDAC6 activity raw data (signal) (HDAC6; Conc. 1.52E-09 M, t2): 1770848
HDAC6 activity raw data (signal) (HDAC6; Conc. 3.33E-06 M, t1): 689811
HDAC6 activity raw data (signal) (HDAC6; Conc. 3.33E-06 M, t2): 662211
HDAC6 activity raw data (signal) (HDAC6; Conc. 3.70E-07 M, t1): 1440305
HDAC6 activity raw data (signal) (HDAC6; Conc. 3.70E-07 M, t2): 1367836
HDAC6 activity raw data (signal) (HDAC6; Conc. 4.12E-08 M, t1): 1630143
HDAC6 activity raw data (signal) (HDAC6; Conc. 4.12E-08 M, t2): 1649164
HDAC6 activity raw data (signal) (HDAC6; Conc. 4.57E-09 M, t1): 1710532
HDAC6 activity raw data (signal) (HDAC6; Conc. 4.57E-09 M, t2): 1671153
HDAC6 activity raw data (signal) (HDAC6; Conc. 5.08E-10 M, t1): 1797804
HDAC6 activity raw data (signal) (HDAC6; Conc. 5.08E-10 M, t2): 1739375
